{
  "source": "patent US20260053767A1",
  "about": "“Hepatoprotective Compositions And Methods” (Jemyll, Ltd., priority 2022, published 2026)",
  "key": {"SIRT3": {"system": "SIRT3", "assay": "SIRT3 in endothelial cells", "assay_type": "cell-based", "settings": "EOMA endothelial cells", "text": "(§1) To that end, the inventors used endothelial cells (EOMA cells) and liver cells (AML-12 cells) in vitro and quantified various markers in response to exposure of the cells to environmental challenge in the presence and absence of DDA at low concentrations. Unless indicated otherwise, the DDA concentration in the in vitro experiments was 5 mcg per microliter. More specifically, the inventors measured p-H2AX protein levels as a marker for DNA damage, PGC-1α protein levels as a marker for mitochondrial biogenesis, NAMPT enzyme levels as a marker for potential for NAD+ production, and total antioxidant capacity as a marker of cellular health. In addition, the inventors also measured global SIRT activity as a gauge of activity for all SIRT enzymes, and in particular SIRT1 enzyme levels as markers for autophagy and various beneficial processes associated with a caloric restricted diet, and SIRT3 levels as markers for mitochondrial function and longevity.\n(§2) In yet a further series of experiments, the inventors also sought to confirm whether or not DDDA would have a modulatory effect in endothelial cells using the same markers and experimental conditions as noted above.\nN=5-6 plates per treatment."}, "[1]": {"system": "liver cells (AML-12 cells)", "assay": "Total antioxidant capacity in liver cells", "assay_type": "cell-based", "settings": "AML-12 liver cells, in the presence of hydrogen peroxide", "text": "as §1"}, "[2]": {"system": "endothelial cells (EOMA cells)", "assay": "Total antioxidant capacity in endothelial cells", "assay_type": "cell-based", "settings": "24 hours, in the presence of hydrogen peroxide, p=0.001", "text": "as §1, §2\nWith respect to antioxidant capacity, FIG. 12 depicts exemplary results. […] N=5-6 plates per treatment."}, "Wistar rats": {"system": "Wistar rats", "assay": "Study 2 (reversal): oral glucose tolerance test and HOMA-IR", "assay_type": "in vivo", "settings": "Study 2: 9 weeks high fat-high cholesterol diet, then 4 weeks treatment", "experimental": "Study design: All animal procedures were approved by the Catholic University of Rome Institutional Animal Care Committee. The design of the studies is summarized in FIG. 18, Panels A and B. • Study 1: Twenty adult Wistar rats, aged 8-10 weeks, were included in the study. The rats were housed in individual cages at 22° C. with 12-h light cycles and had ad libitum access to food and water. Rats were fed a high-fat high-cholesterol diet (44% Carbohydrate, 14% Protein, 42% fat+0.2% Cholesterol) (Mucedola, Milan, IT) for four weeks in the presence or absence of 1% Dodecanedioic acid, sodium salt (w/vol) dissolved in the water (FIG. 18, Panel A). Body weight and food/water intake were monitored weekly. • Study 2: Twenty adult Wistar rats, aged 8-10 weeks, were included in the study. The rats were housed in individual cages at 22° C. with 12-h light cycles and had ad libitum access to food and water. Rats were fed a high-fat high-cholesterol diet (44% Carbohydrate, 14% Protein, 42% fat+0.2% Cholesterol) (Mucedola, Milan, IT). After nine weeks of diet, rats were randomly assigned to one of the following groups: Four weeks of high-fat high-cholesterol diet or four weeks of high-fat high-cholesterol diet and 1% Dodecanedioic acid, sodium salt (w/v) dissolved in the water FIG. 18, Panel B). Body weight and food/water intake were monitored weekly.\nOral Glucose Test Tolerance (OGTT): All animals underwent an OGTT at the end of the study. After an overnight fasting, the rats received a 50% D-glucose solution (1 g/kg body weight) by oral gavage. Blood samples were taken by tail bleeding and collected in EDTA tubes. All blood samples were immediately centrifuged, and plasma divided into appropriate subsamples and stored at −20° C. for further analysis. Blood glucose and was measured at 0, 20, 40, 60, 80, 100 and 120 minutes, while plasma insulin at 0, 60 and 120 minutes. Blood glucose levels were measured by glucometer (Accu-Chek, Roche Diagnostics Division, Grenzacherstrasse, CH). Plasma insulin was measured by ELISA (EMD Millipore Corporation, Billerica, MA), with a sensitivity of 0.1 ng/ml and an intra-and inter-assay precision of 1.9% and 7.6%, respectively.\nDODA administration reverses insulin resistance and NASH: To assess if DODA could reverse the development of diet-induced insulin resistance and NASH, rats were first fed high fat high cholesterol diet for 9 weeks to develop insulin resistance and NASH. After 9 weeks of diet, DODA was administered for 4 weeks to assess insulin resistance and NASH reversal. Rats fed high fat high cholesterol diet without the administration of DODA were included as controls.\nPanels A and B. • Study 1: Twenty adult Wistar rats, aged 8-10 weeks, were included in the study. The rats were housed in individual cages at 22° C. with 12-h light cycles and had ad libitum access to food and water. Rats were fed a high fat high cholesterol diet (44% Carbohydrate, 14% Protein, 42% fat+0.2% Cholesterol) for 4 weeks in the presence or absence of 1% Dodecanedioic acid, sodium salt dissolved in the water (FIG. 25, Panel A). Body weight and food/water intake were monitored weekly. • Study 2: Twenty adult Wistar rats, aged 8-10 weeks, were included in the study. The rats were housed in individual cages at 22° C. with 12-h light cycles and had ad libitum access to food and water. Rats were fed a high fat-high cholesterol diet (44% Carbohydrate, 14% Protein, 42% fat+0.2% Cholesterol). […] Body weight and food/water intake were monitored weekly. […]"}, "[3]": {"system": "liver cells (AML-12 cells)", "assay": "DNA damage (p-H2AX protein levels) in liver cells", "assay_type": "cell-based", "settings": "AML-12 liver cells, 6 hours; p=0.068", "text": "as §1\nFinally, the inventors also investigated whether or not DDDA could have a protective effect against peroxide induced DNA damage, and exemplary results are shown in FIG. 11. […] N=5-6 plates per treatment."}, "NAMPT": {"system": "NAMPT", "assay": "NAMPT enzyme levels in liver cells", "assay_type": "cell-based", "settings": "AML-12 liver cells", "text": "as §1\nTo evaluate the effect of DDDA on energy metabolism, and particularly on NAD+ synthesis, the inventors also tested the effect of DDDA on NAMPT in liver cells."}, "[4]": {"settings": "relatively large oral doses (>20 g); cited from earlier work"}},
  "note": "“Also recorded” adds a separate entry of the source.",
  "data": [
    {"smiles": "O=C(O)CCCCCCCCCCC(=O)O", "note": "[DDDA, dodecanedioic acid]", "values": [
      {"measurement": "SIRT3", "setting": "SIRT3; 24 hours", "result": "significant decline"},
      {"measurement": "SIRT3", "setting": "SIRT3; acute (6-hour data)", "result": "strong and acute increase"},
      {"measurement": "cellular total antioxidant capacity", "setting": "[1]; 6 hours, 5 mcg per microliter, p=0.001", "result": "maintains cellular total antioxidant capacity"},
      {"measurement": "cellular total antioxidant capacity", "setting": "[1]; 24 hours, same trend as 6 hours", "result": "did not reach a level of significance"},
      {"measurement": "cellular total antioxidant capacity", "setting": "[2]", "result": "maintained"},
      {"measurement": "blood glucose concentrations during an oral glucose tolerance test", "setting": "Wistar rats; vs controls", "result": "decrease"},
      {"measurement": "insulin resistance as assessed by HOMA-IR", "setting": "Wistar rats; vs controls", "result": "reverse insulin resistance"},
      {"measurement": "plasma insulin concentrations during an oral glucose tolerance test", "setting": "Wistar rats; vs controls", "result": "decrease"},
      {"measurement": "diet-induced insulin resistance and NASH (overall, reversal)", "setting": "Wistar rats; listed as C12", "result": "could reverse both diet-induced insulin resistance and NASH; also recorded: reverses diet-induced insulin resistance"},
      {"measurement": "diet-induced insulin resistance and NASH (overall, reversal)", "setting": "Wistar rats; listed as DODA", "result": "could reverse both diet-induced insulin resistance and NASH; also recorded: reverses diet-induced insulin resistance"},
      {"measurement": "peroxide induced DNA damage", "setting": "[3]", "result": "trend towards decreased DNA damage"},
      {"measurement": "NAMPT enzyme levels", "setting": "NAMPT; 6 hours, p=0.001", "result": "significantly increased"},
      {"measurement": "NAMPT enzyme levels", "setting": "NAMPT; 24 hours, pattern relative to 6 hours", "result": "paradoxically reversed"},
      {"measurement": "effect on blood glucose in healthy individuals", "setting": "[4]", "result": "no corresponding effects"},
      {"measurement": "effect on blood glucose in individuals diagnosed with NIDDM", "setting": "[4]", "result": "hypoglycemic effect"}
    ]}
  ]
}
